Each molecule was assayed against AMPK (assay: AMPK activation, enzyme-linked immunosorbent assay). Conditions: EC50 for AMPK activation, ELISA.
Assay type: biochemical
Outline: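 Kit-based immunoassay; compounds screened as activators; standard reagents and protocol.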

| Compound | EC50 |
| --- | --- |
| COc1ccc(CN2CCC(NC(=O)c3ccc(C(=O)N4CCC(S(=O)(=O)c5ccc(F)cc5)CC4)nc3)CC2)cc1 [Compound 474, 6-(4-(4-fluorophenylsulfonyl)piperidine-1-carbonyl)-N-(1-(4-methoxybenzyl)piperidin-4-yl)nicotinamide] | 1000 to 5000 nM |
| COc1ccc(OC2CCN(C(=O)c3ccc(C(=O)NC4CCN(Cc5ccc(C#N)cc5)CC4)cn3)CC2)c(NC(C)=O)c1 [Compound 383, 6-(4-(2-acetamido-4-methoxyphenoxy)piperidine-1-carbonyl)-N-(1-(4-cyanobenzyl)piperidin-4-yl)nicotinamide] | > 10000 nM |
| N#Cc1ccc(C(=O)N2CCC(NC(=O)c3ccc(C(=O)N4CCN(Cc5ccc(F)cc5)CC4)cn3)CC2)cc1 [Compound 4, N-(1-(4-cyanobenzoyl)piperidin-4-yl)-5-(4-(4-fluorobenzyl)piperazine-1-carbonyl)picolinamide] | 500 to 1000 nM |
| COc1ccc(C(=O)C2CCN(c3ccc(C(=O)N4CCN(Cc5ccc(F)cc5)CC4)cn3)CC2)cc1 [Compound 189, (4-(4-fluorobenzyl)piperazin-1-yl)(6-(4-(4-methoxybenzoyl)piperidin-1-yl)pyridin-3-yl)methanone] | 1000 to 5000 nM |
| CS(=O)(=O)c1ccc(OC2CCN(C(=O)c3ccc(C(=O)NC4CCN(Cc5cc(F)cc(F)c5)CC4)cn3)CC2)cc1 [Compound 236, N-(1-(3,5-difluorobenzyl)piperidin-4-yl)-6-(4-(4-(methylsulfonyl)phenoxy)piperidine-1-carbonyl)nicotinamide] | < 500 nM |
| C[S+]([O-])c1ccc(C(=O)C2CCN(C(=O)c3ccc(C(=O)NC4CC[N+]([O-])(Cc5ccc(C#N)cc5)CC4)nc3)CC2)cc1 (centres unmarked) [Compound 374, 1-(4-cyanobenzyl)-4-(5-(4-(4-(methylsulfinyl)benzoyl)piperidine-1-carbonyl)picolinamido) piperidine 1-oxide] | > 10000 nM |
| N#Cc1ccc(CN2CCC(NC(=O)c3ccc(C(=O)N4CCC(Cc5ccc(F)cc5)CC4)cn3)CC2)cc1 [Compound 130, N-(1-(4-cyanobenzyl)piperidin-4-yl)-5-(4-(4-fluorobenzyl)piperidine-1-carbonyl)picolinamide] | < 500 nM |
| N#Cc1ccc(CC2CCN(C(=O)c3ccc(C(=O)NC4CCN(Cc5ccc(C#N)cc5)CC4)nc3)CC2)cc1 [Compound 128, N-(1-(4-cyanobenzyl)piperidin-4-yl)-5-(4-(4-cyanobenzyl)piperidine-1-carbonyl)picolinamide] | < 500 nM |
| CS(=O)(=O)c1ccc(OC2CCN(C(=O)c3ccc(C(=O)NC4CCN(Cc5ccc(C#N)cc5)CC4)nn3)CC2)cc1 [Compound 399, N-(1-(4-cyanobenzyl)piperidin-4-yl)-6-(4-(4-(methylsulfonyl)phenoxy)piperidine-1-carbonyl)pyridazine-3-carboxamide] | < 500 nM |
| COc1cccc(CN2CCC(NC(=O)c3ccc(C(=O)N4CCC(Oc5ccc(S(C)(=O)=O)cc5)CC4)cn3)CC2)c1 [Compound 241, N-(1-(3-methoxybenzyl)piperidin-4-yl)-5-(4-(4-(methylsulfonyl)phenoxy)piperidine-1-carbonyl)picolinamide] | < 500 nM |
| CS(=O)(=O)c1ccc(OC2CCN(C(=O)c3ccc(C(=O)NC4CCN(Cc5ccc(N6CCCC6)cc5)CC4)nc3)CC2)cc1 [Compound 208, 5-(4-(4-(methylsulfonyl)phenoxy)piperidine-1-carbonyl)-N-(1-(4-(pyrrolidin-1-yl)benzyl)piperidin-4-yl)picolinamide] | < 500 nM |
| O=C(c1ccc(N2CCC(Oc3ccc(C(F)(F)F)cc3)CC2)nc1)N1CCN(Cc2ccc(F)cc2)CC1 [Compound 187, (4-(4-fluorobenzyl)piperazin-1-yl)(6-(4-(4-(trifluoromethyl)phenoxy)piperidin-1-yl)pyridin-3-yl)methanone] | 1000 to 5000 nM |
| CS(=O)(=O)c1ccc(OC2CCN(C(=O)c3ccc(C(=O)NC4CCN(Cc5cccc(OC(F)(F)F)c5)CC4)nc3)CC2)cc1 [Compound 242, 5-(4-(4-(methylsulfonyl)phenoxy)piperidine-1-carbonyl)-N-(1-(3-(trifluoromethoxy)benzyl)piperidin-4-yl)picolinamide] | < 500 nM |
| N#Cc1ccc(CN2CCC(NC(=O)c3ccc(C(=O)N4CCC(C(=O)c5ccc(-n6cccn6)cc5)CC4)nc3)CC2)cc1 [Compound 393, 6-(4-(4-(1H-pyrazol-1-yl)benzoyl)piperidine-1-carbonyl)-N-(1-(4-cyanobenzyl)piperidin-4-yl)nicotinamide] | < 500 nM |
| CS(=O)(=O)c1ccc(Oc2ccc(NC(=O)c3ccc(C(=O)N4CCC(C(=O)c5ccc(F)cc5F)CC4)nc3)cn2)cc1 [Compound 466, 6-(4-(2,4-difluorobenzoyl)piperidine-1-carbonyl)-N-(6-(4-(methylsulfonyl)phenoxy)pyridin-3-yl)nicotinamide] | < 500 nM |
| COc1ccc(N2CCC(NC(=O)c3ccc(C(=O)N4CCC(Oc5ccc(C#N)cc5)CC4)nc3)CC2)cc1 [Compound 423, 6-(4-(4-cyanophenoxy)piperidine-1-carbonyl)-N-(1-(4-methoxyphenyl)piperidin-4-yl)nicotinamide] | < 500 nM |

The remaining lines, values ahead:

| EC50 | Compound |
| --- | --- |
| < 500 nM | COc1ccc(C(=O)C2CCN(C(=O)c3ccc(C(=O)NC4CCC(Oc5ccc(C#N)cc5)CC4)cn3)CC2)cc1 (centres unmarked) [Compound 315, N-((1s,4s)-4-(4-cyanophenoxy)cyclohexyl)-6-(4-(4-methoxybenzoyl)piperidine-1-carbonyl)nicotinamide] |
| < 500 nM | COc1ccc(C(=O)C2CCN(C(=O)c3ccc(C(=O)NC4CCN(Cc5cc(F)cc(F)c5)CC4)nc3)CC2)cc1 [Compound 287, N-(1-(3,5-difluorobenzyl)piperidin-4-yl)-5-(4-(4-methoxybenzoyl)piperidine-1-carbonyl)picolinamide] |
| < 500 nM | O=C(NC1CCN(Cc2ccc(F)cc2)CC1)c1ccc(C(=O)N2CCC(C(=O)c3ccc(-n4cccn4)cc3)CC2)nc1 [Compound 392, 6-(4-(4-(1H-pyrazol-1-yl)benzoyl)piperidine-1-carbonyl)-N-(1-(4-fluorobenzyl)piperidin-4-yl)nicotinamide] |
| < 500 nM | COc1ccc(C(=O)C2CCN(C(=O)c3ccc(C(=O)NC4CCN(Cc5cccc(OC)c5)CC4)cn3)CC2)cc1 [Compound 425, 6-(4-(4-methoxybenzoyl)piperidine-1-carbonyl)-N-(1-(3-methoxybenzyl)piperidin-4-yl)nicotinamide] |
| < 500 nM | N#Cc1ccc(CN2CCC(NC(=O)c3ccc(C(=O)N4CCC(Oc5ccc(C#N)c(Cl)c5)CC4)cn3)CC2)cc1 [Compound 156, 5-(4-(3-chloro-4-cyanophenoxy)piperidine-1-carbonyl)-N-(1-(4-cyanobenzyl)piperidin-4-yl)picolinamide] |
| < 500 nM | COc1ccc(C(=O)C2CCN(C(=O)c3ccc(C(=O)N[C@@H]4CCN(Cc5ccc(C#N)cc5)C[C@H]4F)cn3)CC2)cc1 [Compound 452, N-((3R,4R)-1-(4-cyanobenzyl)-3-fluoropiperidin-4-yl)-6-(4-(4-methoxybenzoyl)piperidine-1-carbonyl)nicotinamide] |
| < 500 nM | CC(C)(C)OC(=O)NCCCc1cc(C(=O)N2CCN(Cc3ccc(F)cc3)CC2)cnc1C(=O)NC1CCN(Cc2ccc(C#N)cc2)CC1 [Compound 290, tert-butyl 3-(2-(1-(4-cyanobenzyl)piperidin-4-ylcarbamoyl)-5-(4-(4-fluorobenzyl)piperazine-1-carbonyl)pyridin-3-yl)propylcarbamate] |

Reference: patent publication US9663496B2, “AMPK-activating heterocyclic compounds and methods for using the same” (Rigel Pharmaceuticals, Inc., priority 2010, dated 2017)
